Patent US20060069132A1, “Azolecarboxamide herbicides” (priority 2004, published 2006)

What was measured:
[1] = tested on: smallflower umbrella sedge; assay: Test C flooded paddy test; format: in vivo, Cyperus difformis
barnyardgrass = assay: Test C flooded paddy test; format: in vivo, Echinochloa crus-galli
Procedure, shortened: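 Postemergence sprays were applied to plants 2 to 18 cm tall (1- to 4-leaf stage); in the flooded paddy test, barnyardgrass was grown to the 2-leaf stage. After 12 to 14 days in a greenhouse, injury was visually rated against untreated controls on a 0–100 scale (100 = complete control).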

morningglory [2] = assay: Test C pre-/postemergence herbicide test; format: in vivo, Ipomoea coccinea; parameters: key to Plant response rating, Morningglory: 0 = no effect, 100 = complete control; settings: preemergence
Procedure, shortened: (§1)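 Pre/post spray; non-phytotoxic solvent + surfactant. Post-timing 1–4 leaves, 2–18 cm. Read-out: visual % control vs untreated, day 12–14, greenhouse.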

morningglory [3] = assay: Test A pre-/postemergence herbicide test; format: in vivo, Ipomoea spp.
Procedure, shortened: (§2)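 Greenhouse injury scoring (0–100, complete control = 100) at approximately ten days follows simultaneous pre- and postemergence application. Soil received a directed spray after seeding; seedlings of 2–10 cm at the one- to two-leaf stage were sprayed to runoff.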

eastern black nightshade = assay: Test C pre-/postemergence herbicide test; format: in vivo, Solanum ptycanthum; settings: preemergence
Procedure, shortened: as §1

yellow nutsedge = assay: Test C pre-/postemergence herbicide test; format: in vivo, Cyperus esculentus; settings: preemergence
Procedure, shortened: as §1

redroot pigweed = assay: Test A pre-/postemergence herbicide test; format: in vivo, Amaranthus retroflexus
Procedure, shortened: as §2

common ragweed = assay: Test C pre-/postemergence herbicide test; format: in vivo, Ambrosia elatior; parameters: key to Plant response rating, Ragweed: 0 = no effect, 100 = complete control; settings: preemergence
Procedure, shortened: as §1

bermudagrass = assay: Test C pre-/postemergence herbicide test; format: in vivo, Cynodon dactylon; settings: for Plant response rating, Bermudagrass: preemergence
Procedure, shortened: as §1

velvetleaf = assay: Test A pre-/postemergence herbicide test; format: in vivo, Abutilon theophrasti
Procedure, shortened: as §2

giant foxtail = assay: Test C pre-/postemergence herbicide test; format: in vivo, Setaria faberi; settings: preemergence
Procedure, shortened: as §1

lambsquarters = assay: Test C pre-/postemergence herbicide test; format: in vivo, Chenopodium album; settings: preemergence
Procedure, shortened: as §1

[4] = 62 g ai/ha, scale 0 to 100 (0 no effect, 100 complete control)
[5] = 125 g ai/ha, scale 0 to 100 (0 no effect, 100 complete control)
[6] = 250 g ai/ha, scale of 0 to 100, 0 is no effect, 100 is complete control
[7] = 500 g ai/ha, visual rating after 12 to 14 days, scale 0 to 100 (0 no effect, 100 complete control)
[8] = 125 g ai/ha, scale 0 (no effect) to 100 (complete control), visual, 12 to 14 days
[9] = 500 g ai/ha, scale 0 to 100 (0 no effect, 100 complete control), visual, 12 to 14 days
[10] = Postemergence, 500 g ai/ha, 0 to 100 scale, 0 no effect, 100 complete control
[11] = Postemergence, 2000 g ai/ha, 0 to 100 scale, 0 no effect, 100 complete control
[12] = Preemergence, 2000 g ai/ha, visual rating, 0 to 100 scale (0 no effect, 100 complete control)
[13] = preemergence, 500 g ai/ha, visual injury, 0 to 100 scale (0 no effect, 100 complete control)

## CCc1nn(C(C)(C)C)cc1C(=O)Nc1cc(C(=O)N(CC)CC)ccc1F [Compound 223]
[1]; [4]
  Sedge, Umbrella plant response rating: 0
[1]; [5]
  Sedge, Umbrella plant response rating: 0
[1]; [6]
  Sedge, Umbrella plant response rating: 65
[1]; [7]
  Plant response rating, Sedge, Umbrella: 85
barnyardgrass; [4]
  Barnyardgrass plant response rating: 0
barnyardgrass; [5]
  Barnyardgrass plant response rating: 0
barnyardgrass; [6]
  Barnyardgrass plant response rating: 0
barnyardgrass; [7]
  Plant response rating, Barnyardgrass: 45
Morningglory [2]; 62 g ai/ha, scale 0 to 100
  Plant response rating, Morningglory: 0
Morningglory [2]; [8]
  Plant response rating, Morningglory: 0
Morningglory [2]; 250 g ai/ha, scale 0-100
  Plant response rating, Morningglory: 5
Morningglory [2]; [9]
  Plant response rating, Morningglory: 100
Morningglory [3]; [10]
  Morningglory plant response rating: 50
Morningglory [3]; [11]
  Plant response rating, Morningglory: 60
Morningglory [3]; [12]
  Morningglory plant response rating: 55
Morningglory [3]; [13]
  Morningglory plant response rating: 35
Eastern black nightshade; 62 g ai/ha, scale 0 to 100
  Plant response rating, Nightshade: 100
Eastern black nightshade; [8]
  Plant response rating, Nightshade: 100
Eastern black nightshade; 250 g ai/ha, scale 0-100
  Plant response rating, Nightshade: 100
Eastern black nightshade; [9]
  Plant response rating, Nightshade: 100
Yellow nutsedge; 62 g ai/ha, scale 0 to 100
  Plant response rating, Nutsedge, Yellow: 0
Yellow nutsedge; [8]
  Plant response rating, Nutsedge, Yellow: 0
Yellow nutsedge; 250 g ai/ha, scale 0-100
  Plant response rating, Nutsedge, Yellow: 0
Yellow nutsedge; [9]
  Plant response rating, Nutsedge, Yellow: 0
Redroot pigweed; [10]
  Pigweed plant response rating: 50
Redroot pigweed; [11]
  Plant response rating, Pigweed: 55
Redroot pigweed; [12]
  Pigweed plant response rating: 90
Redroot pigweed; [13]
  Pigweed plant response rating: 95
Common ragweed; 250 g ai/ha, scale 0-100
  Plant response rating, Ragweed: 100
Common ragweed; [9]
  Plant response rating, Ragweed: 100
bermudagrass; 62 g ai/ha, scale 0 to 100, 0 no effect, 100 complete control
  Plant response rating, Bermudagrass: 80
bermudagrass; [8]
  Plant response rating, Bermudagrass: 80
bermudagrass; 250 g ai/ha, scale 0-100
  Plant response rating, Bermudagrass: 100
bermudagrass; Preemergence, 500 g ai/ha, scale 0 to 100, 0 no effect, 100 complete control
  Bermudagrass plant response rating: 100
velvetleaf; [10]
  Velvetleaf plant response rating: 40
velvetleaf; [11]
  Plant response rating, Velvetleaf: 35
velvetleaf; [12]
  Velvetleaf plant response rating: 85
velvetleaf; [13]
  Velvetleaf plant response rating: 55
Giant foxtail; 62 g ai/ha, scale 0 to 100
  Plant response rating, Foxtail, Giant: 40
Giant foxtail; [8]
  Plant response rating, Foxtail, Giant: 70
Giant foxtail; 250 g ai/ha, scale 0-100
  Plant response rating, Foxtail, Giant: 100
Giant foxtail; [9]
  Plant response rating, Foxtail, Giant: 100
lambsquarters; 62 g ai/ha, scale 0 to 100
  Plant response rating, Lambsquarters: 95
lambsquarters; [8]
  Plant response rating, Lambsquarters: 100
lambsquarters; 250 g ai/ha, scale 0-100
  Plant response rating, Lambsquarters: 100
lambsquarters; [9]
  Plant response rating, Lambsquarters: 100
